This is an account of results in patent publication US20230233674A1 (priority 2022, published 2023).

The test system of the assay is Influenza A/Hong Kong/2369/2009 (H1N1). The settings on record: mouse, in vivo.

Consider `CCOC(=O)C1=C[C@@H](OC(CC)CC)[C@H](NC(C)=O)[C@@H](N)C1` [Oseltamivir], for which the “mean peak weight loss” value was −32%, the “mice that succumbed to the disease” value came to 90% and the treatment effect result was “no significant effect”.
